Data published in a melting point compilation (Tetko et al.; mined from patent text by program, amines drawn as free bases though some values may be those of a salt).

Compound	melting point [°C]
COc1ccc(-c2ccc3c(C(=O)N(C)C)c(-c4ccccc4)ccc3c2)cc1	171 to 173
O=[N+]([O-])c1c(Cl)cccc1CS(=O)(=O)c1ccccc1	141 to 142
Fc1ccc2c(c1)C(=C1CCNCC1)c1ccccc1C=C2	161
OCC1=CC=C(CO)SS1	64 to 66
COC(=O)c1ccc(-c2nc(-c3ccc(C(F)(F)F)cc3)no2)c(NC(=O)C(F)(F)F)c1	188 to 189
Fc1cc2c(cc1CN1CCOCC1)Cc1c(-c3ccsc3)n[nH]c1-2	222
O=C(NN=Cc1ccc(C(F)(F)F)cc1)c1ccc(O)cc1	260
O=C(O)CCC(CCNCCc1ccccc1)n1nc(Cc2ccc(F)cc2)c2ccccc2c1=O (stereo not drawn)	190 to 191
CN(C)CCCOc1ccc(-c2nnc(CSCCOc3ccccc3)o2)cc1	70
CC(C)(C)c1cc(OCCCc2nnn[nH]2)cc(C(C)(C)C)c1O	179 to 180
CCCSc1ncc(C(Cc2ccccc2)C(=O)O)n1Cc1ccccc1Cl (stereo not drawn)	60 to 63
c1ccc2c(-n3cncn3)ccnc2c1	147 to 149
CN1CC(CO)C(c2ccccc2)(c2ccccc2)C1=O (stereo not drawn)	148 to 150
Fc1ccc(Oc2ccnc3cccnc23)cc1	122 to 124
O=[N+]([O-])c1ccc(C2=NNC(=S)Cc3cc4c(cc32)OCO4)cc1	257 to 258
N#CC(CCc1ccc(Cl)cc1)(c1ccccc1)c1cccnc1 (stereo not drawn)	83 to 84
OCc1cnoc1-c1ccc2c(c1)OCO2	92 to 93
OCCOCCOCCN1CCC(=C2c3ccccc3CC(O)c3sccc32)CC1 (stereo not drawn)	110 to 113
CC(C)(C)c1ccc(O)c(CNS(=O)(=O)O)c1	260 to 262
Cc1nc(N)sc1-c1ccnc(Nc2ccc3c(c2)OCO3)n1	211 to 213
Cc1cn(C2CCCCC2)c(=O)[nH]c1=S	177 to 178
COc1ccc(OC)c2c1CCC(OC(C)=O)(C(C)=O)C2 (stereo not drawn)	120 to 122
O=C(O)CCc1nc2c(F)c(F)cc(F)c2s1	123 to 125

Compound	melting point [°C]
Clc1cc(CBr)c(CBr)cc1Cl	55 to 56
CCCCCCCCNC(=O)N=C(NC(=O)NCC)OC	88 to 90
CC(=O)Nc1nc(NCC(O)CO)c(Cl)nc1[N+](=O)[O-] (stereo not drawn)	130 to 131
CN1C(=O)COc2c1cc(Cl)c([N+](=O)[O-])c2C(=O)O	257
CCC(=O)Cc1ccc(OCc2nnn[nH]2)cc1	148 to 150
CC1Cc2ccc(Cl)cc2C(c2ccc([N+](=O)[O-])cc2)=NN1C(=S)Cl (stereo not drawn)	210 to 214
CC(=O)N(CC(=O)O)c1csc(NC(=O)OCC(Cl)(Cl)Cl)n1	158
O=C(O)CCCCNC(=O)Cc1ccc2c(c1)CC(NS(=O)(=O)c1ccc(Cl)cc1)C2 (stereo not drawn)	156 to 158
Cc1c(C)c2c(c(C)c1NC=O)OC(C)(C)C2=O	191 to 192
N#Cc1ccc(Br)cc1Br	76 to 78
NC(=O)NC(=O)C(Cl)(Cl)CC1(c2cc(Cl)cc(Cl)c2)CO1 (stereo not drawn)	186 to 189
Cc1nc(-c2ccc(OCCCCCOc3ccc(C(=N)NO)cc3)cc2)c(C(C)C)s1	97
CC1(CCS)CN2CCCC(C(=O)O)N2C1=O (stereo not drawn)	119 to 122
O=S(=O)(c1ccccc1)n1ccc2c(Cl)ncnc21	163 to 167
CCOC(=O)c1cn(C)c2cnc3cc(N4CCCC4)c(F)cc3c2c1=O	270
COc1ccc(Oc2c(OC)cc([N+](=O)[O-])c3nccc(C)c23)cc1	158 to 160
Cc1ccc(S(=O)(=O)OCCC2(C)OCCc3nc(-c4ccccc4)sc32)cc1 (stereo not drawn)	86 to 87
CN(Cc1sc2c(=O)c(C(=O)NCc3ccc(Cl)cc3)cn(C)c2c1COCC[Si](C)(C)C)CC(O)c1cc2ccccc2o1 (stereo not drawn)	157 to 159
COc1cc(OC)c(C23CC4CC(CC(C4)C2)C3)cc1C=O	152 to 154
Nc1nc2c(ncn2OC(CO)CCP(=O)(O)O)c(=O)[nH]1 (stereo not drawn)	177 to 178
CCN(C(=O)C(C)(C)C)c1ccc(F)cc1F	69 to 71
CC(C)(C)OC(=O)N1CCCc2onc(O)c2C1	170 to 171
CCC(C)COC(=O)C1(OC(=O)c2ccc(O)cc2)C=CC=CC1 (stereo not drawn)	90.8 to 92.6

Compound	melting point [°C]
O=C1N(Cc2ccco2)c2ccccc2C12COc1cc3c(cc12)OCO3 (stereo not drawn)	110 to 112
Oc1ccc(Nc2ncc3ncc(Cl)cc3n2)cc1	232 to 234
N#Cc1cc(-c2ccc(Cl)c(Cl)c2)[nH]c1Cl	> 200
Cc1cc(C2(C(F)(F)F)CC(Cl)=NO2)ccc1NC(=O)OC(C)(C)C (stereo not drawn)	83 to 85
O=C1CCCCc2ccc([N+](=O)[O-])cc21	88 to 89
COc1cc2c(O)nc(-c3ccc(Cl)cc3)nc2c(OC)c1OC	289
CCOC(=O)C(=O)N1CCN(c2ccccc2C(C)(C)C)CC1	95 to 98
CC1C=NNc2c(-c3ccc(F)cc3)c(-c3ccncc3)nn21 (stereo not drawn)	204
C=C1COc2c(N3CCC(NC(=O)OC(C)(C)C)C3)c(F)cc3c(=O)c(C(=O)O)cn1c23 (stereo not drawn)	219 to 220
CCCCCCOC(=O)C=Nc1cc(Cl)ccc1C(=O)O	99
N#Cc1c(N2CCCC2)cc(-c2ccccc2)c2c1Cc1ccccc1-2	210 to 212
CC(C)(C)[Si](C)(C)OC1CCCc2cnc3cc(OCc4ccccc4)ccc3c21 (stereo not drawn)	123 to 125
CC(C)(C)OC(=O)NN(C(=O)c1ccccc1)C(C)(C)C	167 to 170
CCC(CC)(CO)Nc1nc(-c2ccc(C#N)cc2)cs1	118 to 120
O=S(=O)(OCC(F)(F)C(F)F)c1ccc2ccccc2c1	89.6
C#CC(C)(C)OC(C)Oc1ccc(NC(=O)N(C)C)cc1Cl (stereo not drawn)	99 to 101
Fc1ccccc1-c1n[nH]c(-c2ccccc2C(F)(F)F)n1	153 to 155
CCCCc1nc(SC)c(C(=O)O)n1Cc1ccc(-c2ccccc2-c2nnn[nH]2)cc1	180
Cc1ccc(C=NC2CCN(c3cc4c(cc3F)c(=O)c(C(=O)O)cn4-c3ccc(F)cc3)C2)cc1 (stereo not drawn)	233 to 234
OCc1c(Br)c(Br)c(CO)c(Br)c1Br	248
O=[N+]([O-])c1ccc(Br)cc1-c1cc(-c2cccc(Br)c2)on1	195 to 197

Further lines, results first:

melting point [°C]	Compound
115 to 118	CCN(CC)c1cccc(COc2ccc(N)nn2)c1
127 to 128	O=C(Nc1ccc(-n2nc(C(F)(F)F)cc2C(F)(F)F)cc1)c1c(F)cccc1F
197 to 198	COC(=O)c1cc([N+](=O)[O-])c(Oc2cc(C)cc(C)c2)c(S(N)(=O)=O)c1
83 to 91	COc1ccc(C2CNC(=O)O2)cc1OCc1ccccc1 (stereo not drawn)
213 to 214	CN(C)C(=O)c1cccc2c1nc(-c1c(F)cccc1F)n2Cc1c(F)cccc1F
142 to 144	C=C(C)c1ccc2occ(C#N)c(=O)c2c1
178 to 184	COc1ccc(C(=CC(=O)O)c2ccc(-c3ccccc3)cc2)cc1OC
148 to 150	C=CCc1cc2c(cc1O)CCC(=O)N2CC=C(C)C
240 to 242	CC(C)NC(=O)c1cc(Cl)nc(Cl)c1NC(=O)c1cc(C(F)(F)F)nn1-c1ncccc1Cl
77 to 78	CCOc1nn(-c2c(Cl)cc(C(F)(F)F)cc2Cl)c(N)c1C(=O)c1cccc(C(F)(F)F)c1
156 to 158	COc1ccc2cc3c(N)nn(CN(C)C)c3nc2c1
216	O=c1ncc(I)cn1COc1ccc(Cl)cc1
167 to 170	CC(=O)c1c(C)[nH]c(-c2ccccc2C)c1NCc1ccc(Cl)cc1
192 to 193	CCN(c1cccc(C(=O)Nc2cc(NC(=O)c3cccc(N4CCOCC4)c3)ccc2C)c1)S(C)(=O)=O
212 to 213	Cc1nc(N2C[C@@H](C)N(Cc3cc(F)cc(F)c3)C2=O)sc1C(N)=O
217 to 220	Cc1cc(Cl)n2nc(S(=O)(=O)Nc3c(Cl)cccc3Cl)nc2n1
72 to 74	CCS(=O)(=O)N1CCN(CCCCCCNc2cc(OC)cc3c(C)ccnc23)CC1
94 to 95	CCNC(=O)c1c(Cl)cccc1[Si](C)(C)CC

melting point [°C]	Compound
143 to 145	COc1ccnc(N2CCN(C(=O)c3cccs3)CC2)n1
51 to 54	COc1cc([N+](=O)[O-])c2nccc(C)c2c1OCCCCCc1cccs1
60 to 62	C=C1C=C(Oc2cc(C(=O)OC)ccc2OC)C1(F)F
94.6 to 95.9	CC(=O)NC[C@@H]1CCCc2cc(Sc3ccccc3)cc(F)c21
121 to 123	CC[C@@H](NC(=O)N1CC(=O)NC[C@@H](Cc2cc(Cl)ccc2OC)C1=O)c1cccc(C(=O)O)c1
72 to 73	C=CCn1c(=O)c(OC)nn(-c2cccc(NC(C)=O)c2)c1=O
230 to 233	CCOC(=O)c1ccc(Nc2nc(=O)c3cccnc3s2)cc1
103 to 104	COc1ccc(CCOc2cccc(-c3cccc(N)c3)n2)cc1OC
144 to 146	CCOC(=O)[C@@H](O)[C@@H]1OC(=O)c2cc(OC)c(OC)cc21
218 to 220	COc1cccc2c(Nc3ccccc3C)nc(Cl)nc12
202 to 204	CSC1C(=O)Nc2c(C(=O)c3ccc(F)cc3)cc(Cl)cc21 (stereo not drawn)
177 to 179	CS(=O)(=O)c1ccc(-c2cnn(-c3ccc(F)c(F)c3)c(=O)c2Cc2ccc(F)c(F)c2)cc1
122 to 124	CC(=O)OC(CF)c1ccccc1S(N)(=O)=O (stereo not drawn)
145	CC(C)(C)C(O)C(CS(=O)(=O)c1ccccc1)n1cncn1 (stereo not drawn)
108 to 110	CCOC(=O)N[C@@H]1Cc2ccccc2[C@H]1Nc1ccccc1C(=O)OC (relative stereo)
> 300	CCNC(=O)Cn1c(=O)c(=O)[nH]c2cc([N+](=O)[O-])c(-n3cccc3)cc21
167 to 168	COc1cccc(CCNC(=O)c2nc(N)sc2-c2ccncc2)c1OC
195 to 197	CC(C)(C)N(Cc1ccccc1)C(=O)C=c1sc2n(c1=O)Cc1ccccc1N=2
